The results in this text go back to the METLIN SMRT retention time set (Domingo-Almenara et al. 2019).

A short description of this series: gradient 5% acetonitrile 3 min, to 50% in 2 min, to 85% in 15 min, held 3 min, 100 µL/min. The note with it: column: Zorbax Extend-C18 2.1 x 50 mm; eluents: water / acetonitrile, 0.1% formic acid. In outline:
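Standards, all pure, were combined into mixtures of ~100 molecules and run at 100 μL/min on a Zorbax Extend-C18 column (2.1 × 50 mm, 1.8 μm) with water and acetonitrile, each containing 0.1% formic acid. A coupled quadrupole time-of-flight mass spectrometer operated in positive and negative ionization mode. Retention time values come from computationally picked adduct peaks, each inspected manually.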
Molecule `Cc1nc2ccccn2c(=O)c1CCN1CCC(C(=O)c2ccc(F)cc2)CC1` had an RP-LC retention time of 643 s. For `O=C(CN1CCN(C(=O)Nc2ccc(F)cc2)CC1=O)N1CCCC1` the value was 615 s; for `Cc1ccc(NC(=O)c2cnc3c(c2)c(=O)n(C)c(=O)n3-c2ccc(F)cc2)cc1`, 936 s; for `O=C(NCCc1c[nH]c2ccccc12)C1CCCN(c2nn3c(=O)c4c(nc3s2)CCCC4)C1` (stereo unspecified), 775 s. Molecule `CCn1cc(-c2nc(C(=O)Nc3ccc(C#N)cc3)cs2)c2cccnc21` returned an RP-LC retention time of 1050 s. For `CC(C)Cn1cc(CCNC(=O)c2cccc(C(F)(F)F)c2)c2cccnc21` the value was 940 s. With `O=C(CSc1cc(-n2ccc(C(=O)NC3CC3)n2)ncn1)Nc1ccc2c(c1)OCO2` the figure was 714 s; with `O=c1c2cc3c(cc2nc(SCc2nc(-c4ccc(Cl)cc4)no2)n1CC1CCCO1)OCO3` (stereo unspecified), 1230 s. Regarding `CCOC(=O)c1noc2ncnc(Nc3ccc(CC)cc3)c12`, the RP-LC retention time was 1060 s.

Molecule `CC1Oc2ccccc2N(CC(=O)N2CCCN(c3cc(=O)n(C(C)C)c(=O)n3C(C)C)CC2)C1=O` (stereo unspecified) showed an RP-LC retention time of 845 s. For the molecule `Cc1ccc(N2CCN(S(=O)(=O)c3cc4n(c3)CCCNC4=O)CC2)cc1`, the RP-LC retention time was 743 s. For `CC(=O)Nc1ccc(SCC(=O)c2ccc(Cl)cc2)nn1` the value was 756 s; for `Cc1cccc(Sc2nccnc2N2CCCC(C(=O)N3CCCC3)C2)c1` (stereo unspecified), 1010 s; for `O=C(CN1CCCc2nc(C3CC3)ncc2C1=O)NCC1CC1`, 638 s. With `Cc1ccc(-c2nc(NC(=O)Cc3csc(C)n3)sc2C)cc1` the figure was 944 s; with `COc1ccccc1C(=O)Nc1nc(-c2ccc3c(c2)NC(=O)C(C)O3)cs1` (stereo unspecified), 924 s. For `COc1ccc(Br)c2c1-c1nc(NC(=O)c3ccccc3)sc1C2` the value was 1130 s; for `CC1CCC2(CC1)NC(=O)N(CC(=O)NCc1ccccc1F)C2=O` (stereo unspecified), 772 s; for `COc1cccc(N2CCN(S(=O)(=O)c3cc4[nH]c(=O)[nH]c4cc3C)CC2)c1`, 758 s.

`CC(C)n1c(=O)sc2cc(S(=O)(=O)N3CCC(C(=O)N4CCOCC4)CC3)ccc21` had an RP-LC retention time of 762 s. `O=C(C1CCCO1)N1N=C(c2ccc(Br)cc2)CC1c1ccco1` (stereo unspecified) displayed an RP-LC retention time of 892 s.

In turn, `CCn1ncc(Cl)c1C(=O)N1CCCC1c1c(C)noc1C` (stereo unspecified) gave an RP-LC retention time of 734 s. For the molecule `COc1cccc(OC)c1C(=O)NCCNC(=O)c1ccc(NC(=O)C2CC2)cc1`, the RP-LC retention time amounted to 608 s.

Regarding `Cc1nc2c(ccc3nc(NC(=O)CN4C(=O)c5ccccc5C4=O)sc32)s1`, the RP-LC retention time turned out to be 780 s. Molecule `COc1ccccc1N1CCN(Cc2nc(-c3ccc(N4CCCCC4)nc3)no2)CC1` came in with an RP-LC retention time of 757 s. For `Cc1ccc(NC(=O)C2CCN(S(=O)(=O)c3c(C)[nH]c(C)c3C(=O)N3CCCC3)CC2)cc1` the value was 723 s; for `Cc1ccc(-c2noc(CCN3CCN(c4ccccc4)CC3)n2)cc1`, 751 s; for `CCOC(=O)c1c(C)[nH]c(CCC(=O)NCCN2CCCCC2C)c1C` (stereo unspecified), 618 s. For `Cc1cc(N(C)C)nc(N2CCN(S(=O)(=O)c3ccc(-c4ccccc4)cc3)CC2)n1` the value was 814 s; for `CCOC(=O)c1nc(Nc2ccc(C(C)C)cc2)c2ccccc2n1`, 1020 s. For `Cn1nc(-c2nnc(-c3ccccc3F)o2)c2c1CCN(S(=O)(=O)c1cc(F)ccc1F)C2`, the RP-LC retention time worked out at 928 s. Regarding `O=C(NCCc1csc(C2CCCN(C(=O)C3CC3)C2)n1)C1CCC1` (stereo unspecified), the RP-LC retention time turned out to be 682 s. For `O=C(NCc1ccccn1)c1ccc(NC(=O)C2CC2)cc1N1CCCCCC1`, the RP-LC retention time stood at 593 s. For `Cc1cc(C(F)F)n2nc(C(=O)Nc3ccc(F)cc3C)nc2n1`, the RP-LC retention time amounted to 811 s. In turn, `CCCCNC(=O)c1c(O)c2cccnc2n(-c2cccc(OC)c2)c1=O` showed an RP-LC retention time of 1140 s. The molecule `CC(=O)NNC(=O)N1Cc2ccccc2Oc2ccc(Cl)cc21` yielded an RP-LC retention time of 843 s.

`CCn1ccc(NC(=O)c2ccc(C)cc2C)n1` showed an RP-LC retention time of 765 s. Regarding `O=C([C@@H]1C[C@H](Oc2cccnc2)CN1C(=O)c1ccc2ncccc2c1)N1CCCC1`, the RP-LC retention time was 544 s. As for `COc1cc(NC(=O)Cn2nc3n(c2=O)CCCCC3)cc(OC)c1`, the RP-LC retention time was 704 s. As to `Clc1ccc(-c2nc3ccccn3c2Nc2ccc3c(c2)OCO3)cc1`, the RP-LC retention time was 727 s.

With `Cc1sc2ccn(CC(C)C)c(=O)c2c1C(=O)NCCN1CCCCC1`, the RP-LC retention time came to 639 s. With `COCCNC(=O)C1CCN(c2nc3ccc(-c4ccccc4F)nc3s2)CC1` the figure was 827 s; with `CCOc1ccc(OCC)c(NC(=O)c2cn3c4c(ccc(Cl)c4c2=O)OCC3)c1`, 1100 s.

`COc1ccc(NC(=O)N2CC3CCCN3c3ccccc32)cc1` (stereo unspecified) came in with an RP-LC retention time of 985 s.

In turn, `Cc1ccc(-c2csc(NC(=O)c3nc4ccccc4s3)n2)o1` showed an RP-LC retention time of 1120 s. With `Cc1ccc2nc(-c3ccc(C)c(NC(=O)C4CCCCC4)c3)[nH]c2c1` the figure was 735 s; with `CCCn1c(CN2CCOCC2)nc2cc(NC(=O)CC(C)C)ccc21`, 633 s; with `CNc1nnc(-c2nnc(C)o2)c2ccccc12`, 567 s. `Cc1cccc(S(=O)(=O)N2CCC(n3cnnc3C3CC3)CC2)c1` had an RP-LC retention time of 713 s. Take `Cc1nnc(-c2ccc3ccn(CC(=O)NCc4cccs4)c3c2)o1`: the RP-LC retention time was determined as 729 s. On to `CC(C)n1c(N2CCN(C(=O)c3c(F)cccc3F)CC2)cc(=O)n(C(C)C)c1=O`, for which the RP-LC retention time is 814 s. For `Cc1nnc2sc(SCc3ccc(Cl)cc3Cl)nn2c1=O` the value was 869 s; for `Cc1nc2cccnc2n1C1CCN(C(=O)c2cccc(Cl)c2)C1` (stereo unspecified), 602 s. With `COc1ccc(CCC(=O)N2CCC(C(=O)NCCc3csc(-c4cccs4)n3)CC2)cc1` the figure was 826 s; with `N#Cc1ccc(-c2nc(-c3ccc4c(c3)ncn4CCN3CCOCC3)no2)cc1`, 624 s; with `CC(C)NC(=O)C1CCC(=O)N1C1CCN(C(=O)C2CCCCC2)CC1` (stereo unspecified), 591 s.

Take `Cc1cc(C)cc(-c2nnc(Cc3nc(-c4cccc(Cl)c4)no3)o2)c1`: the RP-LC retention time was found to be 1230 s.

`O=C(C1CCC1)N1CCC(Oc2cc(N3CCOCC3)ncn2)C1` (stereo unspecified): the RP-LC retention time is 670 s.

`O=C(CSc1ccccc1)N1CCc2nc(-c3ccc(F)cc3)ncc2C1`: the RP-LC retention time came out at 1000 s.

Consider `O=C(NCCCN1CCCCCC1)c1csc(-c2ccnc(N3CCOCC3)c2)n1`, for which the RP-LC retention time worked out at 576 s.

Turning to `CCOc1ccc(CC(=O)N2CCCC2c2nc(-c3cccc(C)c3)no2)cc1` (stereo unspecified), the RP-LC retention time is 1120 s. With `Cc1nnc(N2CCCC(C(=O)NCc3ccco3)C2)c2nn(-c3ccccc3)c(C)c12` (stereo unspecified) the figure was 680 s; with `CCOC(=O)c1nc(N(CC)Cc2ccccc2)c2ccccc2n1`, 899 s.

`CCn1nnc2ccc(-c3noc(-c4cccc(NC(C)=O)c4)n3)cc21` yielded an RP-LC retention time of 819 s.

`Cc1ccc(Nc2c(-c3cc(Br)ccc3O)nc3ncccn23)c(C)c1` returned an RP-LC retention time of 1120 s. For `O=C(NCCc1ccccc1)N1[C@H]2CC[C@@H]1c1cncnc1C2` the value was 642 s; for `CC1CCCN(Cc2nc(-c3ccc(N(C)Cc4ccccc4)nc3)no2)C1` (stereo unspecified), 734 s. On to `CN1C(=O)c2cc(C(=O)NCc3ccccc3F)nn2CC1(C)C(=O)NCc1ccccc1` (stereo unspecified), for which the RP-LC retention time was 697 s. `O=C(Cc1c(F)cccc1Cl)Nc1nnc(C2CC(=O)N(c3ccccc3)C2)o1` (stereo unspecified) came in with an RP-LC retention time of 691 s. `CC(C)CCNC(=O)NCCC1CCN(S(=O)(=O)c2ccc(F)cc2)CC1` came in with an RP-LC retention time of 880 s. For `CCCc1nc2ccc(CCC(=O)NCc3ccc(F)cc3)cc2[nH]1`, the RP-LC retention time came to 624 s. With `Cc1csc(-c2cc(S(=O)(=O)N3CCCc4ccccc43)c(C)s2)n1` the figure was 1210 s; with `CCOc1ccc(C2Cn3nnc(-c4nc(-c5cccc(C)c5)no4)c3CO2)cc1` (stereo unspecified), 1270 s. For `O=C(Cc1ccc(F)cc1)Nc1ccc2cn[nH]c2c1` the value was 688 s. For `Cc1cc(C)n(-c2ccc(CNC(=O)c3ccc(Cl)s3)cc2)n1` the value was 892 s. The molecule `CC1=C(c2ccc(C)c(C)c2)S(=O)(=O)N=C1N1CCCN(C(=O)C(C)(C)C)CC1` displayed an RP-LC retention time of 903 s. Turning to `COc1ccc(S(=O)(=O)N2CCCC(C)(C(=O)NCc3ccccc3)C2)cc1` (stereo unspecified), the RP-LC retention time was determined as 917 s.

For the molecule `COc1ccc(OC)c(S(=O)(=O)N2CCn3c(nn(CC4CC4)c3=O)C2)c1`, the RP-LC retention time was found to be 734 s. With `CN(C)CCNC(=O)C1CCCN(c2ccc(Sc3ccc(Br)cc3)nn2)C1` (stereo unspecified) the figure was 648 s; with `CNc1ncn(-c2c(C)cccc2C)c(=O)n1`, 684 s.

In turn, `Cc1ccc(NC(=O)N2CCC(c3cc(N)on3)CC2)c(Cl)c1` registered an RP-LC retention time of 736 s.
